Values after ≈ are worked out from the molar mass of the structure shown. Where two headings read alike, the source gives them in different places.
What was measured:
A2780/DDP cells = test: Antiproliferative activity, A2780/DDP; format: cell-based; conditions: Homo sapiens, 72 h treatment, cell counting, mean±s.d., three experiments
Method: (§1) Drugs were dissolved in DMSO and freshly diluted in medium before use. The antiproliferative activity was evaluated on A2780 (human ovarian carcinoma) and its derived drug-resistant cell lines (A2780/DX, A2780/DDP), IGROV-1/Pt1 (human ovarian carcinoma), GBM (human glioblastoma) and MX-1 (human mammary carcinoma). All cell lines, except MX-1, were maintained in RPMI 1640 (Bio-Whittaker, Verviers, Belgium) supplemented with 10% fetal calf serum (Life Technologies, Gaithersburg, MD, USA). MX-1 cells were maintained in McCoy's medium (Life Technologies, Gaithersburg, MD, USA) supplemented with 10% fetal calf serum. For experiments, all cell lines were seeded into six-well plates in duplicate and treated, 24 or 72 h (only MX-1 cells) after seeding, with solvent or different concentrations of taxanes. Adherent cells were counted 72 h after the beginning of treatment, by a cell counter (Coulter Electronics, Luton, UK) or detected by the Sulforhodamine B colorimetric assay (only GBM cells). The IC50 was defined as the drug concentration causing a 50% decrease in cell number over that of untreated controls.

in vivo = conditions: female, athymic nude CD-1, mouse, sc
[1] = system: MX-1 (human mammary carcinoma); test: Antiproliferative activity, MX-1; format: cell-based; conditions: 72 h treatment, cell counting, mean±s.d., three experiments
Method: as §1

tubulin = test: Tubulin polymerisation assay in IGROV-1/Pt1 cells; format: cell-based, human; conditions: 24 h
Method: For tubulin polymerisation assay, IGROV-1/Pt1 cells were treated with PTX or IDN 5390 at the indicated concentrations for 24 h. Cells were then processed as previously described ([Cassinelli et al, 2001]) in order to separate cellular fractions containing soluble cytosolic or polymerised cytoskeletal tubulin. Samples were electrophoresed by sodium dodecyl sulphate (SDS)–PAGE (10% resolving gel and 3% stacking gel) and blotted onto nitrocellulose membranes. The distribution of tubulin was analysed by immunoblotting, using a rabbit polyclonal antitubulin antibody (BioMakor, Revohot, Israel).

[2] = system: MX-1 mammary tumour xenograft; conditions: for LCK (1 g) / Max BWL (%) / Tox/Tot / Max TWI%: qd × 4–5/w × 3w
A2780/DX cells = test: Antiproliferative activity, A2780/DX; format: cell-based; conditions: Homo sapiens, 72 h treatment, cell counting, MDR phenotype mediated by P-gp
Method: as §1

human tumour cell lines = format: cell-based
Method: as §1

[3] = system: IGROV-1/Pt (human ovarian carcinoma); test: Antiproliferative activity, IGROV-1/Pt; format: cell-based
Method: as §1

[4] = mouse, in vivo
VEGF = VEGF expression in GBM cells, immunoblotting; conditions: 72 h at IC80: IDN 5390 40, PTX 17 ng ml^−1
[5] = system: A2780 (human ovarian carcinoma); test: Antiproliferative activity, A2780; format: cell-based; conditions: 72 h treatment, cell counting, mean±s.d., three experiments
Method: as §1

[6] = Pharmacokinetic study, plasma levels by HPLC; format: in vivo, CDF1 mice; conditions: female, CDF1, mouse
Method: In order to assess the bioavailability of IDN 5390, a pharmaco-kinetic study was performed in female CDF1 mice (Charles River Italia, Calco, Italy). IDN 5390, formulated in Polysorbate 80 and diluted in 0.9% NaCl solution, immediately before treatment, was administered p.o. or i.v. at the dose of 120 mg kg^−1. Blood samples were taken (four mice per group) from the retro-orbital plexus, under diethylether anaesthesia at 5, 15 and 30 min and at 1, 2 and 4 h.
IDN 5390 levels were determined in plasma according to the high-performance liquid chromatography (HPLC) method of [Zaffaroni et al (2002)]. Briefly, plasma samples (0.4 ml) were spiked with 1 μg IDN 5517, as internal standard, and with 0.7 ml of 0.2 M ammonium acetate buffer, pH 4.5, and extracted by solid-phase extraction on a cyano cartridge (Waters, Millford, MA, USA). HPLC analyses were carried out on a Symmetry C18 column (3.5 μm, 4.6 × 150 mm; Waters, London, UK), with UV detection of the analytes at 227 nm. The lower limit of quantitation was of 50 ng ml^−1.
Pharmacokinetic parameters were calculated by using a nonlinear fitting program ([Sacchi-Landriani et al, 1983]). The experimental areas under the concentration–time curve (AUCexp) of IDN 5390 were calculated by the trapezoidal rule. Extrapolations to infinity (AUCinf) were obtained by dividing the concentration at the last experimental points by the elimination constant (Ke). The terminal half-lives (T1/2) were calculated using the formula T1/2=0.693/Ke. Clearance (Clp) and volume of distribution (Vd) were obtained from the following relation: Clp=Dose/AUCext and Vd=Clp/Ke, respectively. The bioavailability (F) was derived from the ratio: F=AUCp.o./AUCi.v. 100.

[7] = 2 × 90 mg kg^−1 p.o., up to 5 weeks, 50 treatments

## CC(=O)O[C@@]1([C@@H]2/C(C)=C(/O)C(=O)C3=C(C)[C@@H](OC(=O)[C@H](O)[C@H](CC(C)C)NC(=O)OC(C)(C)C)C[C@@](O)([C@H]2OC(=O)c2ccccc2)C3(C)C)CO[C@@H]1CCO [IDN 5390, 13-(N-Boc-β-isobutylisoserinyl)-10β-dehydro-C-seco-10-deacetylbaccatin III]
A2780/DDP cells
  IC50: 0.0318 ± 0.0055 µg/mL (≈ 0.0404 µM)
In vivo
  MTD: 120 mg/kg
[1]
  IC50: 0.0345 ± 0.0078 µg/mL (≈ 0.0438 µM)
tubulin; equitoxic concentrations (IC80): IDN 5390 300, PTX 100 ng ml^−1
  tubulin polymerisation: comparable extent of tubulin polymerisation
tubulin; same concentration (100 ng ml^−1), vs PTX
  tubulin polymerisation: less effective than the parent drug
[2]; 30 mg kg^−1 p.o. twice a day, start when tumours averaged 100 mg
  antitumour efficacy: not very effective
[2]; 2 × 90 mg kg^−1 p.o., 5 weeks, end of the experiment (100 days)
  tumours exhibiting CR at the end of the experiment: six out of 10
[2]; [7]
  lethal toxicity: no lethal toxicity
  max BWL: 11%
[2]; p.o., 120 mg kg^−1, from day 1
  LCK (1 g): 1.1
  Max BWL (%): 5%
  Tox/Tot: 0/5
[2]; p.o., 120 mg kg^−1, from day 1, day 25
  Max TWI%: 82(25) %
[2]; s.c., all doses, after 3 weeks of treatment
  TWI: > 80%
[2]; s.c., 60 mg kg^−1, from day 1
  LCK (1 g): 1.4
  Max BWL (%): 3%
  Tox/Tot: 0/3
[2]; s.c., 60 mg kg^−1, from day 1, day 29
  Max TWI%: 83(29) %
[2]; s.c., 90 mg kg^−1, from day 1
  LCK (1 g): 2.7
  Max BWL (%): 3.5%
  Tox/Tot: 0/5
[2]; s.c., 90 mg kg^−1, from day 1, day 29
  Max TWI%: 97(29) %
[2]; s.c., 120 mg kg^−1, from day 1
  LCK (1 g): 1.7–3.1
  Max BWL (%): 6–7.5%
  Tox/Tot: 1/10
[2]; s.c., 120 mg kg^−1, from day 1, day 25, P<0.05 vs p.o.
  Max TWI%: 93–96 ^*(25) %
A2780/DX cells
  IC50: 0.334 µg/mL (≈ 0.424 µM)
Human tumour cell lines
  reduction of cytotoxicity as compared to PTX: 2–3 fold
[3]; IGROV-1, 72 h treatment, cell counting, mean±s.d., three experiments
  IC50: 0.0615 ± 0.0045 µg/mL (≈ 0.0781 µM)
[3]; IGROV-1/Pt cells, read-out: IC80 (equitoxic concentration)
  IC80: 0.3 µg/mL (≈ 0.381 µM)
[4]
  neurotoxicity: no symptoms of neurotoxicity were evident
VEGF
  VEGF expression: downregulated
[5]
  IC50: 0.023 ± 0.0004 µg/mL (≈ 0.0292 µM)
[6]; in vivo, bioavailability (F)
  bioavailability: 27.3%
[6]; in vivo, iv
  Vd: 0.21
[6]; in vivo, iv, 120 mg/kg
  AUC: 125000 ng·h/mL
  AUC(0-inf): 128000 ng·h/mL
  Cmax: 161 µg/mL
  Tmax: 5 min
  clearance: 15.5 mL/min/kg
  half-life: 54 min
[6]; in vivo, po, 120 mg/kg
  AUC: 34400 ng·h/mL
  AUC(0-inf): 35100 ng·h/mL
  Cmax: 25 µg/mL
  Tmax: 30 min
  half-life: 42 min
[6]; plasma, 120 mg kg^−1, in mice, read-out: T1/2
  half-life: < 60 min

— PMC2377083, “IDN 5390: an oral taxane candidate for protracted treatment schedules” (British Journal of Cancer, 2003)
